This note sets out measurements from patent US20210188897A1, “NEUROACTIVE STEROIDS AND COMPOSITIONS AND METHODS THEREOF” (Sparx Therapeutics, Inc., priority 2019, published 2021).

One data set has as its target T1, α1β2δ GABAA receptors (Homo sapiens, UniProt P14867+P47870).
T1 construct: expressed in transfected cells; host or cells: 293T cells (ATCC-CRL-1573)
T1 sequence (P14867 28-456): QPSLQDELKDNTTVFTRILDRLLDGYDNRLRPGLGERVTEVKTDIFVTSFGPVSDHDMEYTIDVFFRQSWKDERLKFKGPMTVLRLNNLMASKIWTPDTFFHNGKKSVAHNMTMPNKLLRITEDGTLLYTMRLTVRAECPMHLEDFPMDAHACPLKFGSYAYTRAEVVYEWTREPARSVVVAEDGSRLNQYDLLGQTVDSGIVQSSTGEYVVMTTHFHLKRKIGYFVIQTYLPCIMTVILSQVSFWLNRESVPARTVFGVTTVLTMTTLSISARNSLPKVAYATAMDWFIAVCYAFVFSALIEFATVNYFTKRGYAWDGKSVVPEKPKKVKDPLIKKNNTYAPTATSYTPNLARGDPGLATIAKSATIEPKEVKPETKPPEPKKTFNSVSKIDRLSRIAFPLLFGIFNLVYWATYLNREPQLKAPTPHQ
T1 sequence (P47870 25-512 limits assumed): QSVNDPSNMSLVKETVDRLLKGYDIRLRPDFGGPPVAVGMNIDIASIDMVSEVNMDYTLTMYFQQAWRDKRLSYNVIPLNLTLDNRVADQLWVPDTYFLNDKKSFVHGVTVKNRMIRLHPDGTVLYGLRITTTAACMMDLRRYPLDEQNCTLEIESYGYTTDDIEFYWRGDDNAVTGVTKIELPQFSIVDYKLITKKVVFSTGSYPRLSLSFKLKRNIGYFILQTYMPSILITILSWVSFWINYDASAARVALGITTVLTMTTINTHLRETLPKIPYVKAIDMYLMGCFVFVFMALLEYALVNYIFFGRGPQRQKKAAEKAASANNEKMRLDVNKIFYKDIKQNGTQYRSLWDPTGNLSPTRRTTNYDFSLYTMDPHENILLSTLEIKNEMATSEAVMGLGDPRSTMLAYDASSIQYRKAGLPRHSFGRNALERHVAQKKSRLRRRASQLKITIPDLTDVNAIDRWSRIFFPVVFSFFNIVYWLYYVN
T1 sequence (O14764 17-452 partner limits assumed): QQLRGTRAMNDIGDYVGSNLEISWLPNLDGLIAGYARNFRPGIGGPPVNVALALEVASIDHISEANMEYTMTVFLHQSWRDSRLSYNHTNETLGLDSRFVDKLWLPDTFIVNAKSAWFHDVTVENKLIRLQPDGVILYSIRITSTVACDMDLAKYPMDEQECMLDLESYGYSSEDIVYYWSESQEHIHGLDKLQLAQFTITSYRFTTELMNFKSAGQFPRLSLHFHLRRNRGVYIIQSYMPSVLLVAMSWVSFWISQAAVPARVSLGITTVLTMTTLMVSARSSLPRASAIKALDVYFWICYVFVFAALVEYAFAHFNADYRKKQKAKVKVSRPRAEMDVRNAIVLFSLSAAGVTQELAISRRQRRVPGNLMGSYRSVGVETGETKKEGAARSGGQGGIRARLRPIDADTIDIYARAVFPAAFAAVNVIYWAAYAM
As to the kind of experiment: GABAAR modulator FLIPR assay (membrane potential), α1β2δ. In kind it is cell-based. How it is done:
(§1) 293T cells (ATCC-CRL-1573) were applied for transient expression of α1β2γ2 or α1β2δ GABAA receptors. Cells were plated in a 96 well plate with a confluence of about 70%-80% and cultured overnight in complete medium without antibiotics. The α1β2γ2 or α1β2δ subunits were transfected via the lipofectamine method. The FLIPR assay was developed to quantitatively assess the compounds' PAM activity in α1β2γ2 and α1β2δ GABAA receptors. The FLIPR assays were conducted 48 h post-transfection. The FLIPR reagents were purchased from Molecular Devices Corporation (Membrane potential red kit, Catalog number R8126). The FMP-Red-Dye was reconstituted to 1× assay buffer. Growth medium was removed from the wells and cells were loaded with 100 μL FMP-Red-Due solution for 30 minutes in the dark at r.t. After dye loading, each plate was transferred to the FLIPR Tetra Station: the dye was excited at 510-545 nm, and the fluorescence signals were recorded at 565-625 nm. Baseline recordings were acquired for 1 minute. FMP-Red-Dye is a slow-response, potential sensitive probe and the maximal response is usually seen within 2 minutes after triggering cellular depolarization or hyperpolarization. After baseline recording, the different doses of compound solutions were firstly added on cells and the fluorescent signals were recorded for 5 minutes. Then the cells were followed by a second addition with ligand GABA solution and recorded for another 3.5 minutes. Cell responses were calculated as ΔF=Fmax−Fmin, where Fmax was the maximum response in arbitrary fluorescence units, and Fmin was the baseline arbitrary fluorescence unit value.

For a further data set, the target named is T2, α1β2γ2 GABAA receptors (Homo sapiens, UniProt P14867+P47870).
T2 construct: expressed in transfected cells; host or cells: 293T cells (ATCC-CRL-1573)
T2 sequence (P18507 40-475 partner, one chain of several): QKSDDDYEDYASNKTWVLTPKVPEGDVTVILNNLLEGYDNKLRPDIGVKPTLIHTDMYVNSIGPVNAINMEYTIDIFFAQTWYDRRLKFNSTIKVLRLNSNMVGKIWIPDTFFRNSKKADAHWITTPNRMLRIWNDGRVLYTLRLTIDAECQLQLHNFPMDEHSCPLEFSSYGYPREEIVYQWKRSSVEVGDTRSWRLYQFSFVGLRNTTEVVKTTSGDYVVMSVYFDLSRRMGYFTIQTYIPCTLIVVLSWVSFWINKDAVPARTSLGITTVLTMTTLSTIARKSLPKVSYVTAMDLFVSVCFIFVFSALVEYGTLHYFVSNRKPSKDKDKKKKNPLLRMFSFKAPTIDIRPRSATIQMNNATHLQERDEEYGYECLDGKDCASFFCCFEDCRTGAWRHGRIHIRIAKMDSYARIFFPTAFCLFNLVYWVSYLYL
As to the kind of experiment: GABAAR modulator FLIPR assay (membrane potential), α1β2γ2. In kind it is cell-based. How it is done: as §1

For data set [1], the system named is 5XFAD and wild type mice. Briefly: Forced swim test. The format is in vivo. To be noted: 9-month old 5XFAD and wild type mice, 20 mg/kg oral gavage, 45 minutes post dosing; FIG. 3. How it is done: 9-month old 5XFAD transgenic mice (expressing human APP and PSEN1 transgenes with 5 AD-linked mutations) and wild type litermates (C57/B16) were dosed as at 20 mg/kg via oral gavage. The cognitive and mood behavioral tests were performed 45 minutes post dosing.
The forced swim test is a test for depression-like behavior in rodents. The assay involves observing a mouse stay afloat in a tank of water and monitoring how much time it spends immobile.

Data set [2] concerns 5XFAD and wild type mice. As to the kind of experiment: Open field test. The format is in vivo. To be noted: 9-month old 5XFAD and wild type mice, 20 mg/kg oral gavage, 45 minutes post dosing; FIG. 2. Here is the method: 9-month old 5XFAD transgenic mice (expressing human APP and PSEN1 transgenes with 5 AD-linked mutations) and wild type litermates (C57/B16) were dosed as at 20 mg/kg via oral gavage. The total distance travelled was recorded in an open field chamber 45 minutes post dosing.

[3] abbreviates: 293T cells transiently expressing α1β2δ GABAA receptors, FLIPR, PAM activity, read-out: EC50 in α1β2δ/293T.
Setting [4] is: 293T cells transiently expressing α1β2γ2 GABAA receptors, FLIPR, PAM activity, read-out: EC50 in α1β2γ2/293T.

pEC50: −log10 of the molar value. Read-outs that look alike come from different tables or passages of the source.

In the case of `CC(=O)[C@H]1CC[C@H]2[C@@H]3CC[C@@H]4C[C@](C)(O)CC[C@@H]4[C@H]3CC(F)(F)[C@]12C` [Example 5, 1-((3R,5R,8R,9R,10S,13S,14S,17S)-12,12-difluoro-3-hydroxy-3,13-dimethylhexadecahydro-1H-cyclopenta[a]phenanthren-17-yl)ethan-1-one], the values for the pEC50 at α1β2δ GABAA receptors (setting [3]) and at α1β2γ2 GABAA receptors (setting [4]) were 6.72 and 6.41, respectively.

For the molecule `C=C1C[C@H]2[C@@H](CC[C@@H]3C[C@](C)(O)CC[C@@H]32)[C@@H]2CC[C@H](C#N)[C@@]12C` [Example 1, (3R,5R,8R,9R,10S,13S,14S,17S)-3-hydroxy-3,13-dimethyl-12-methylenehexadecahydro-1H-cyclopenta[a]phenanthrene-17-carbonitrile], the pEC50 is 7.09 on α1β2δ GABAA receptors and 6.57 on α1β2γ2 GABAA receptors.

`C[C@@]1(O)CC[C@H]2[C@H](CC[C@@H]3[C@@H]2CC(F)(F)[C@]2(C)[C@@H](C(=O)Cn4cc(F)cn4)CC[C@@H]32)C1` [Example 7, 1-((3R,5R,8R,9R,10S,13S,14S,17S)-12,12-difluoro-3-hydroxy-3,13-dimethylhexadecahydro-1H-cyclopenta[a]phenanthren-17-yl)-2-(4-fluoro-1H-pyrazol-1-yl)ethan-1-one]: the pEC50 on α1β2δ GABAA receptors (setting [3]) was 6.41; at α1β2γ2 GABAA receptors (setting [4]) it was 6.13.

On to `C[C@@]1(O)CC[C@H]2[C@H](CC[C@@H]3[C@@H]2CC(F)(F)[C@]2(C)[C@@H](C(=O)Cn4cc(C#N)cn4)CC[C@@H]32)C1` [Example 6, 1-(2-((3R,5R,8R,9R,10S,13S,14S,17S)-12,12-difluoro-3-hydroxy-3,13-dimethylhexadecahydro-1H-cyclopenta[a]phenanthren-17-yl)-2-oxoethyl)-1H-pyrazole-4-carbonitrile], for which the pEC50 at α1β2δ GABAA receptors (setting [3]) was 6.92; at α1β2γ2 GABAA receptors (setting [4]), 6.33.

As for `C=C1C[C@H]2[C@@H](CC[C@@H]3C[C@](C)(O)CC[C@@H]32)[C@@H]2CC[C@H](C(C)=O)[C@@]12C` [Example 2, 1-((3R,5R,8R,9R,10S,13S,14S,17S)-3-hydroxy-3,13-dimethyl-12-methylenehexadecahydro-1H-cyclopenta[a]phenanthren-17-yl)ethan-1-one], the pEC50 was 7.01 at α1β2δ GABAA receptors (setting [3]) and 6.55 at α1β2γ2 GABAA receptors (setting [4]).

Take `C[C@@]1(O)CC[C@H]2[C@H](CC[C@@H]3[C@@H]2CC(F)(F)[C@]2(C)[C@@H](C#N)CC[C@@H]32)C1` [Example 4, (3R,5R,8R,9R,10S,13S,14S,17S)-12,12-difluoro-3-hydroxy-3,13-dimethylhexadecahydro-1H-cyclopenta[a]phenanthrene-17-carbonitrile]: the figures for the pEC50 at α1β2δ GABAA receptors (setting [3]) and at α1β2γ2 GABAA receptors (setting [4]) were 6.15 and 5.53, respectively.

In the case of `C[C@@]1(O)CC[C@H]2[C@H](CC[C@@H]3[C@@H]2CC(F)(F)[C@]2(C)[C@@H](C(=O)Cn4ccc(C#N)n4)CC[C@@H]32)C1` [Example 8, 1-(2-((3R,5R,8R,9R,10S,13S,14S,17S)-12,12-difluoro-3-hydroxy-3,13-dimethylhexadecahydro-1H-cyclopenta[a]phenanthren-17-yl)-2-oxoethyl)-1H-pyrazole-3-carbonitrile], the pEC50 was 6.60 at α1β2δ GABAA receptors (setting [3]) and 6.20 at α1β2γ2 GABAA receptors (setting [4]). In addition, in the data set on 5XFAD and wild type mice [1], the “efficacy in forced swim test (time immobile, depression-like behavior)” value is reported as “genotype-specific efficacy”. Further, in the data set with 5XFAD and wild type mice [2], the “locomotor functions (total distance travelled in open field chamber)” value is reported as “no interference of the locomotor functions”.
